Results on 1 compound are retold here after patent US10059717B2, “Urea compounds containing 3,4-dihydropyrimido[4,5-D]pyrimidin-2(1H)-one skeleton as protein kinase inhibitors” (KOREA INSTITUTE OF SCIENCE AND TECHNOLOGY, priority 2016, dated 2018).

In this assay the test system is OCI-AML3 (N-Ras Q61L). Put plainly: Proliferation inhibitory activity, OCI-AML3. The format is cell-based. The conditions noted are these: Homo sapiens, OCI-AML-3; OCI-AML3 (N-Ras Q61L) cell line; read-out: Proliferation inhibitory efficacy (GI50, μM) OCI-AML3 (N-Ras Q61L). As to the method:
GI50 values were calculated by measuring the proliferation inhibitory efficacy of the compounds of the present invention on mt-NRAS (G12D) Ba/F3, U937 (wt-NRAS) and OCI-AML3 (mt-NRAS) cell lines.
Accordingly, the compounds of the present invention are particularly effective as a therapeutic agent for acute myelogenous leukemia (AML).

As for `CCN1CCN(C(=O)c2ccc(Nc3ncc4c(n3)N(C)C(=O)N(c3cc(NC(=O)Nc5ccccc5OC)ccc3C)C4)cn2)CC1` [Compound No. 14, 1-(3-(7-((6-(4-ethylpiperazin-1-carbonyl)pyridin-3-yl)amino)-1-methyl-2-oxo-1,4-dihydropyrimido[4,5-d]pyrimidin-3(2H)-yl)-4-methylphenyl)-3-(2-methoxyphenyl)urea], the GI50 is less than 0.5 µM.
